Measured values taken from ChEMBL document CHEMBL2396543, “Development of time resolved fluorescence resonance energy transfer-based assay for FXR antagonist discovery” (Bioorg Med Chem, 2013).
The source made the active and inactive calls.

Columns and labels:
[1] = target: T1, Bile acid receptor (Homo sapiens) (UniProt Q96RI1); test: Binding affinity to human GTS-tagged FXR LBD using fluorescein-tagged SRC2-2 at 10 nM after 15 to 30 mins by TR-FRET assay
T1 sequence (whole entry): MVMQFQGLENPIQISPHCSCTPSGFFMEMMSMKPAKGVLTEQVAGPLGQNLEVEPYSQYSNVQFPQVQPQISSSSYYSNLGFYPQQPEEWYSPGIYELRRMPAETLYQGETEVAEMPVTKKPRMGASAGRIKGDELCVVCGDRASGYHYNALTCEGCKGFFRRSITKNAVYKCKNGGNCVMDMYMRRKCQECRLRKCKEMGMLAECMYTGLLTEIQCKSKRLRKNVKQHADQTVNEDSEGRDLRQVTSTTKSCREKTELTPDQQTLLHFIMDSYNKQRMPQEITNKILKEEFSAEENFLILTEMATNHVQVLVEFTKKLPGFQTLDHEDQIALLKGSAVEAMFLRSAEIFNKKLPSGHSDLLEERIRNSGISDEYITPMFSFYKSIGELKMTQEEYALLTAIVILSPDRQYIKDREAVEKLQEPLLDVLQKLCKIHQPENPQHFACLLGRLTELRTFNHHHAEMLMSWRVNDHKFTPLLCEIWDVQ

[2] = target: T1, Bile acid receptor (Homo sapiens); test: Binding affinity to human GTS-tagged FXR LBD using fluorescein-tagged SRC2-2 at 10 nM after 15 to 30 mins by TR-FRET assay in presence of GW4064
[3] = target: T1, Bile acid receptor (Homo sapiens); test: Binding affinity to human GTS-tagged FXR LBD using fluorescein-tagged SRC2-2 at 10 nM after 15 to 30 mins by TR-FRET assay in presence of fexaramine

Measured: Activity

CC(C)c1onc(-c2c(Cl)cccc2Cl)c1COc1ccc(/C=C/c2cccc(C(=O)NNC(=S)Nc3ccc(-c4c5ccc(=O)cc-5oc5cc(O)ccc45)c(C(=O)O)c3)c2)c(Cl)c1
active: all assays above
